Test results as given in patent publication US8557848B2, “4,5-ring annulated indole derivatives for treating or preventing of HCV and related viral infections” (Merck Sharp & Dohme Corp., priority 2006, dated 2013).
Where two headings read alike, the source gives them in different places.

Experiments:
[1] = test system: HCV replicon cells (replicon RNA level); test: Cell-Based HCV Replicon Assay; details: Hepatitis C virus, 72 h
In short: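 Replicon cells at 5000/well received 10 serial 2-fold compound dilutions in 0.5% DMSO, 5% FBS, harvested day 3. Replicon RNA quantified by multiplex Taqman RT-PCR on NS5B versus GAPDH; EC50 and EC90 taken at ΔCT = 1 and 3.2 above baseline from sigmoid fits.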

[2] = molecular target: T1, HCV NS5B polymerase (NS5BΔCT21, from HCV-Con 1 isolate, genotype 1b) (Hepatitis C virus genotype 1b, UniProt Q9WMX2); test: HCV NS5B Polymerase Inhibition Assay; assay type: biochemical
T1 construct: A soluble C-terminal 21-amino acid truncated NS5B enzyme form; polyhistidine (C); made in house; host or cells: Escherichia coli
In short: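 His-tagged NS5BΔCT21 (30 or 150 nM) with 0.03 μM DCoH75 RNA template, 0.25 mM GAU, 0.1 μM ATP/GTP/UTP, 0.026 μM CTP plus [^33P]-CTP, pH 7.3, 2% DMSO; 2 h at 22° C. Incorporated radioactivity counted after filter capture. IC50 from 10-point 2-fold dilutions (top 200 μM to 1 μM) fitted to Hill equation.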

[3] = replicon RNA level by real time PCR (Taqman), cells harvested on day 3, read-out: EC50
[4] = NS5B polymerase inhibition, [33P]-CTP incorporation, 22° C. for 2 hours, read-out: IC50

Row | Structure (SMILES) | EC50 [1, 3] [nM] | IC50 [2, 4] [nM] | EC50 [1] [nM] | IC50 [2] [nM]
1 | Nc1ccccc1S(=O)(=O)NC(=O)c1c(-c2ccc[nH]c2=O)c2c3occc3c(F)cc2n1Cc1cc2ccccc2nc1Cl [Compound 223] | < 500 | < 25 |  | 
2 | CC(C)S(=O)(=O)NC(=O)c1c(-c2ccc[nH]c2=O)c2c3c(c(F)cc2n1Cc1csc(C(N)=O)c1)CCO3 [Compound 188] | < 500 | < 25 |  | 
3 | CC(C)n1ncc2cc(Cn3c(C(=O)O)c(-c4ccc[nH]c4=O)c4c5occc5c(F)cc43)c(Cl)nc21 [Compound 156] | 500 to 1500 | < 25 |  | 
4 | O=C(NS(=O)(=O)C1CC1)c1c(-c2ccc[nH]c2=O)c2c3occc3c(F)cc2n1Cc1cc2ccccc2nc1Cl [Compound 211] | < 500 | < 25 |  | 
5 | CS(=O)(=O)NC(=O)c1c(-c2ccc[nH]c2=O)c2c3occc3c(F)cc2n1Cc1cc(Cl)nc2ccccc12 [Compound 193] | 500 to 1500 | < 25 |  | 
6 | Nc1noc2ccc(Cn3c(C(=O)O)c(-c4ccc[nH]c4=O)c4c5occc5c(F)cc43)cc12 [Compound 102] | < 500 | < 25 |  | 
7 | CS(=O)(=O)NC(=O)c1c(-c2ccc[nH]c2=O)c2c3occc3c(F)cc2n1Cc1ccccc1F [Compound 134] | < 500 | < 25 |  | 
8 | COc1ccc2cc(Cn3c(C(=O)O)c(-c4ccc[nH]c4=O)c4c5occc5c(F)cc43)c(Cl)nc2c1 [Compound 153] | < 500 | < 25 |  | 
9 | O=C(NS(=O)(=O)C1CC1)c1c(-c2ccc[nH]c2=O)c2c3occc3c(F)cc2n1Cc1ccccc1F [Compound 162] | < 500 | < 25 |  | 
10 | O=C(O)c1c(-c2ccc[nH]c2=O)c2c3occc3c(F)cc2n1Cc1cc(F)ccc1F [Compound 89] | < 500 | < 25 |  | 
11 | CS(=O)(=O)Nc1cccc(S(=O)(=O)NC(=O)c2c(-c3ccc[nH]c3=O)c3c4ccoc4ccc3n2Cc2ccc(F)cc2F)c1 [Compound 11] | > 1500 | 25 to 100 |  | 
12 | CC(C)S(=O)(=O)NC(=O)c1c(-c2ccc[nH]c2=O)c2c3occc3ccc2n1Cc1ccccc1F [Compound 64] | < 500 | < 25 |  | 
13 | CS(=O)(=O)NC(=O)c1c(-c2ccc[nH]c2=O)c2c3occc3c(F)cc2n1Cc1cc(F)ccc1F [Compound 150] | < 500 | < 25 |  | 
14 | C[C@@H]1COc2c1ccc1c2c(-c2ccc[nH]c2=O)c(C(=O)NS(C)(=O)=O)n1Cc1cc(F)ccc1F [Compound 148] | < 500 | < 25 |  | 
15 | O=C(O)c1c(-c2ccc[nH]c2=O)c2c3occc3c(F)cc2n1Cc1cc2c(=O)[nH]cnc2cc1F [Compound 127] | < 500 | < 25 |  | 
16 | CC(C)(C)OC(=O)N(C(=O)OC(C)(C)C)c1cc(Cn2c(C(=O)NS(=O)(=O)C3CC3)c(-c3ccc[nH]c3=O)c3c4occc4c(F)cc32)c(F)cn1 [Compound 227] | < 500 | > 100 |  | 
17 | CC1(C)COc2c1ccc1c2c(-c2ccc[nH]c2=O)c(C(=O)O)n1Cc1cc2ccccc2nc1Cl [Compound 231] |  | < 25 | < 500 | 
18 | O=C(O)c1c(-c2cccc(O)c2F)c2c3occc3c(F)cc2n1Cc1ccccc1F [Compound 88] | 500 to 1500 | 25 to 100 |  | 
19 | O=C(NS(=O)(=O)C1CC1)c1c(-c2ccc[nH]c2=O)c2c3occc3c(F)cc2n1Cc1cc2nc[nH]c2cc1Cl [Compound 205] | < 500 | < 25 |  | 
20 | COc1ccc([N+](=O)[O-])cc1Cn1c(C(=O)O)c(-c2ccc[nH]c2=O)c2c3occc3ccc21 [Compound 104] | > 1500 | < 25 |  | 
21 | CSc1ccc2cc(Cn3c(C(=O)O)c(-c4ccc[nH]c4=O)c4c5occc5c(F)cc43)c(Cl)nc2c1 [Compound 168] | < 500 | < 25 |  | 
22 | CS(=O)(=O)NC(=O)c1c(-c2ccc[nH]c2=O)c2c3ccoc3ccc2n1Cc1ccc(F)cc1F [Compound 9] | > 1500 | < 25 |  | 
23 | NCc1ccc(Cn2c(C(=O)O)c(-c3ccc[nH]c3=O)c3c4occc4c(F)cc32)cc1 [Compound 82] | < 500 | < 25 |  | 
24 | CS(=O)(=O)NC(=O)c1c(-c2ccc[nH]c2=O)c2c3occc3c(F)cc2n1Cc1ccc2onc(N)c2c1 [Compound 170] | < 500 | < 25 |  | 
25 | O=C(O)c1c(-c2ccc[nH]c2=O)c2c3occc3c(F)cc2n1Cc1cc2ccccc2[nH]c1=O [Compound 115] | < 500 | < 25 |  | 
26 | O=C(NS(=O)(=O)C1CC1)c1c(-c2ccc[nH]c2=O)c2c3occc3ccc2n1Cc1cc(F)ccc1F [Compound 62] | < 500 | < 25 |  | 
27 | O=C(O)c1c(-c2ccc[nH]c2=O)c2c3occc3c(F)cc2n1Cc1ccc2[nH]c(=O)[nH]c2c1 [Compound 103] | < 500 | < 25 |  | 

Row | Structure (SMILES) | EC50 [1, 3] [nM] | IC50 [2, 4] [nM] | EC50 [1] [nM] | IC50 [2] [nM]
28 | NC(=O)c1cccc(Cn2c(C(=O)O)c(-c3ccc[nH]c3=O)c3c4occc4c(F)cc32)c1 [Compound 92] | < 500 | < 25 |  | 
29 | O=C(O)c1c(-c2ccc[nH]c2=O)c2c3occc3c(F)cc2n1Cc1cc2nc[nH]c2cc1F [Compound 105] | < 500 | < 25 |  | 
30 | NCc1ccc(Cn2c(C(=O)O)c(-c3ccc[nH]c3=O)c3c4occc4c(F)cc32)c(F)c1 [Compound 95] | < 500 | < 25 |  | 
31 | Nc1cc(Cn2c(C(=O)O)c(-c3ccc[nH]c3=O)c3c4scnc4ccc32)ccn1 [Compound 13] | > 1500 | > 100 |  | 
32 | Nc1cc(Cn2c(C(=O)O)c(-c3ccc[nH]c3=O)c3c4occc4c(F)cc32)ccn1 [Compound 77] | < 500 | < 25 |  | 
33 | Cc1ccc2nc(Cl)c(Cn3c(C(=O)O)c(-c4ccc[nH]c4=O)c4c5occc5c(F)cc43)cc2c1 [Compound 140] | < 500 | < 25 |  | 
34 | CS(=O)(=O)NC(=O)c1c(-c2ccc[nH]c2=O)c2c3occc3c(F)cc2n1Cc1cc2cccc(Br)c2o1 [Compound 218] | > 1500 | < 25 |  | 
35 | NC(=O)c1cnc(F)c(Cn2c(C(=O)NS(=O)(=O)C3CC3)c(-c3ccc[nH]c3=O)c3c4occc4c(F)cc32)c1 [Compound 197] | < 500 | < 25 |  | 
36 | COC(=O)c1ccc(F)c(Cn2c(C(=O)NS(=O)(=O)C3CC3)c(-c3ccc[nH]c3=O)c3c4occc4ccc32)c1 [Compound 192] | < 500 | < 25 |  | 
37 | O=C(O)c1c(-c2ccc[nH]c2=O)c2c3sccc3ccc2n1Cc1cc(F)ccc1F [Compound 33] | > 1500 | 25 to 100 |  | 
38 | CS(=O)(=O)NC(=O)c1c(-c2ccc[nH]c2=O)c2c3occc3cc(F)c2n1Cc1cc(F)ccc1F [Compound 151] | 500 to 1500 | < 25 |  | 
39 | Cc1ccccc1Cn1c(C(=O)NS(C)(=O)=O)c(-c2ccc[nH]c2=O)c2c3ncsc3ccc21 [Compound 51] | < 500 |  |  | < 25
40 | CS(=O)(=O)NC(=O)c1c(-c2ccc[nH]c2=O)c2c3occc3c(F)cc2n1Cc1ccnc(N)c1 [Compound 133] | < 500 | < 25 |  | 
41 | O=C(O)c1c(-c2ccc[nH]c2=O)c2c3occc3c(F)cc2n1Cc1ccc2nc[nH]c2c1 [Compound 91] | < 500 | < 25 |  | 
42 | CCS(=O)(=O)NC(=O)c1c(-c2ccc[nH]c2=O)c2c3occc3ccc2n1Cc1cc(F)ccc1F [Compound 57] | < 500 | < 25 |  | 
43 | Cc1cccc(Cn2c(C(=O)NS(C)(=O)=O)c(-c3ccc[nH]c3=O)c3c4occc4ccc32)c1F [Compound 66] | < 500 | < 25 |  | 
44 | Cc1nn(C)c2nc(Cl)c(Cn3c(C(=O)O)c(-c4ccc[nH]c4=O)c4c5occc5c(F)cc43)cc12 [Compound 143] | < 500 | < 25 |  | 
45 | CN(C)S(=O)(=O)NC(=O)c1c(-c2ccc[nH]c2=O)c2c3occc3ccc2n1Cc1cc2ccccc2nc1Cl [Compound 204] | < 500 | < 25 |  | 
46 | O=C(O)c1c(-c2ccc[nH]c2=O)c2c3sccc3ccc2n1Cc1ccccc1F [Compound 34] | 500 to 1500 | 25 to 100 |  | 
47 | CC(C)(C)C(=O)OCOC(=O)c1c(-c2cccn(COC(=O)C(C)(C)C)c2=O)c2c3occc3c(F)cc2n1Cc1cc(=O)n(COC(=O)C(C)(C)C)cc1F [Compound 228] | < 500 |  |  | > 100
48 | O=C(O)c1c(-c2ccc[nH]c2=O)c2c3occc3c(F)cc2n1Cc1cc[nH]c(=O)c1 [Compound 78] | < 500 | 25 to 100 |  | 
49 | CS(=O)(=O)NC(=O)c1c(-c2ccc[nH]c2=O)c2c3ncsc3ccc2n1Cc1ccccc1F [Compound 50] | < 500 | < 25 |  | 
50 | CS(=O)(=O)NC(=O)c1c(-c2ccc[nH]c2=O)c2c3occc3c(F)cc2n1Cc1cc(C(=O)NC2CC2)ccc1F [Compound 206] | 500 to 1500 | < 25 |  | 
51 | O=C(NS(=O)(=O)C1CC1)c1c(-c2ccc[nH]c2=O)c2c3occc3ccc2n1Cc1ccccc1F [Compound 65] | < 500 | < 25 |  | 
52 | O=C(O)c1c(-c2ccc[nH]c2=O)c2c3occc3c(F)cc2n1Cc1nc(Br)ccc1F [Compound 136] | < 500 | < 25 |  | 
53 | O=C(NS(=O)(=O)C1CC1)c1ccc(F)c(Cn2c(C(=O)NS(=O)(=O)C3CC3)c(-c3ccc[nH]c3=O)c3c4occc4c(F)cc32)c1 [Compound 225] | 500 to 1500 | < 25 |  | 
